Test results as given in patent publication US10738054B2, “Synergistic compositions comprising (R)-dimiracetam (1) and (S)-dimiracetam (2) in a non-racemic ratio” (Metys Pharmaceuticals AG, priority 2017, dated 2020).
Where “and” joins values, the source holds several entries; their conditions need not be identical. Identical values can stand only once.

Assays:
[1] = tested on: rats with oxaliplatin-induced mechanical allodynia; test: Von Frey test in oxaliplatin model; type: in vivo, rat; conditions: oxaliplatin 2.4 mg/kg i.p.
Method: (§1) After repeated oral administration of either racemic dimiracetam or the preferred inventive composition with an enantiomeric excess of (R)-dimiracetam of 50%, oxaliplatin-induced mechanical hyperalgesia was measured. Pain threshold was assessed by a Randall & Selitto analgesymeter (Leighton et al. Br. J. Pharmacol. 93:553-560, 1988) before the morning administration. In the morning of day 28, also mechanical allodynia (Sakurai et al. Pain 147:165-74, 2009) and cold sensitivity were assessed, using the von Frey and cold plate tests (Di Cesare Mannelli et al. Exp Neurol 261:22-33, 2014), respectively. […] Development of tolerance was not observed.
The animals were placed in 20 cm×20 cm Plexiglas boxes equipped with a metallic mesh floor, 20 cm above the bench. Animals were allowed to habituate themselves to their environment for 15 min before the test. An electronic Von Frey hair unit (Ugo Basile, Varese, Italy) was used: the withdrawal threshold was evaluated by applying forces ranging from 0 to 50 g with a 0.2 g accuracy. […] The paw sensitivity threshold was defined as the minimum force required to elicit a robust and immediate withdrawal reflex of the paw. Voluntary movements associated with locomotion were not considered as a withdrawal response. Stimuli were applied to each posterior paw at 5 s intervals. Measurements were repeated 5 times and the final value was obtained by averaging the 5 measurements (Sakurai et al. Pain 147:165-74, 2009).

[2] = tested on: NMDA plus glycine-evoked [3H]-D-aspartic acid release from rat spinal synaptosomes; test: Inhibition of NMDA+glycine-induced glutamate ([3H]-D-Asp) release from rat spinal synaptosomes (Example 2); type: biochemical; conditions: for Percent inhibition of NMDA + glycine-induced glutamate release from rat spinal synaptosomes: mean ± S.E.M. of 3 to 6 experiments; for IC50: rat spinal synaptosomes, 10 μM NMDA plus 1 μM glycine, read-out: estimated IC50 for inhibition of NMDA plus glycine-evoked [3H]-D-aspartic acid release
Method: Rat spinal synaptosomes, free from glial contaminants, were prepared according to the method of Paluzzi S. et al., 2007, a modification of the method of Nakamura et al., 1993, as follows.
Sprague-Dawley rats aged between 90 to 130 days were used. Animals were housed at constant temperature (22±1° C.) and relative humidity (50%) under a regular light-dark schedule (lights 7.00 am-7.00 pm). Food and water were freely available.
Rats were sacrificed by decapitation and the whole spinal cord was rapidly removed and maintained at 4° C. Rat spinal cord was homogenized (90 rpm; 24 up-down strokes in 2 min) in 10 volumes (1 g tissue in 10 ml) of ice cold 0.32 M sucrose, buffered at pH 7.4 using a glass-teflon tissue grinder (clearance 0.25 mm). The homogenate was centrifuged (5 min, 1000 g at 4° C.) to remove nuclei and debris, and the supernatant was gently stratified at 0-4° C. on a discontinuous Percoll® (Sigma Aldrich, St Louis, Mo., USA) gradient (2, 6, 10 and 20% v/v in Tris-buffered sucrose) and centrifuged at 33,500 g for 5 min. The layer between 10 and 20% Percoll (i.e. the synaptosomal fraction) was collected and washed by centrifugation in physiological medium having the following composition (mM): NaCl, 140; KCl, 3; MgSO4 1.2; NaH2PO4, 1.2; NaHCO3 5; CaCl2 1.2; HEPES 10; glucose, 10; pH 7.4. Protein content was measured according to Bradford M M, 1976 using bovine serum albumin as a standard.
Synaptosomes (about 70 μg protein) were incubated at 37° C. for 15 min in 2.5 mL of 0.05 μM [^3H]-D-aspartate ([^3H]-D-Asp; Perkin Elmer Italia, Monza, Milano, Italy). Then, the suspension was diluted to 122.5 mL with physiological medium maintained at 37° C. and 5 mL aliquots of the synaptosomal suspension were layered on microporous filters placed at the bottom of a set of 24 parallel 25 mL superfusion chambers maintained at 37° C. (Superfusion system, Ugo Basile, Comerio, Varese, Italy). Superfusion was then started with physiological medium at a rate of 0.5 mL/min, and was continued for 46 min. Starting at t=37 min, nine consecutive 1-min filtrate samples were collected. NMDA (10 μM) and glycine (1 μM) were introduced at the end of the first sample collected and maintained until the end of the experiment.
The radioactivity contained in each filtrate sample was measured by scintillographic methods, using a Ultima Gold scintillation fluid (Perkin-Elmer Milan, Italy). Each whole 0.5 mL sample was counted for radioactivity by adding 3 mL of scintillation fluid.
Tritium content measured in each sample was expressed as fractional percent (i.e. percent content of each sample with respect to total [^3H] content at the onset of the respective collection period). Drug effects were evaluated by calculating the ratio between the effluxes in the seventh fraction collected (in which the maximum effect of NMDA was reached) and that of the first fraction (basal release, prior to application of NMDA+glycine). This ratio was compared to the same seventh- and first-fraction ratio obtained under control conditions.
The possible effects of racemic and non-racemic dimiracetam mixtures on NMDA plus glycine-induced neurotransmitter release from rat spinal cord synaptosomes were assessed.

[3] = tested on: NMDA+glycine-induced [3H]-D-aspartate release in rat spinal cord synaptosomes; test: In vitro inhibition of pre-loaded [3H]-D-aspartate release induced by NMDA+glycine in rat spinal cord synaptosomes (Example 5); type: biochemical; conditions: tested at 10 nM
Method: These experiments were performed following the previously published methodology (Fariello et al. Neuropharmacology. 2014, (81), 85-94) and the results are shown in FIG. 5.

[4] = tested on: NMDA-plus-glycine-triggered [3H]-D-aspartate release in synaptosomal preparations of the spinal cord; conditions: spinal cord synaptosomes; read-out: IC50 for inhibiting NMDA-plus-glycine-triggered [3H]-D-aspartate release; cited from earlier work
[5] = tested on: rats pre-treated with 2′,3′-dideoxycytidine (ddC, zalcitabine); conditions: cited from earlier work
[6] = tested on: rats with oxaliplatin-induced cold sensitivity; test: Cold plate test in oxaliplatin model; type: in vivo, rat; conditions: oxaliplatin 2.4 mg/kg i.p.
Method: as §1
The animals were placed in a stainless box (12 cm×20 cm×10 cm) with a cold plate as floor. The temperature of the cold plate was kept constant at 4° C.±1° C. Pain-related behaviors (i.e. lifting and licking of the hind paw) were observed and the time (s) of the first sign was recorded. The cut-off time of the latency of paw lifting or licking was set at 60 s (Di Cesare Mannelli et al. Exp Neurol 261:22-33, 2014).

[7] = tested on: NMDA-plus-glycine-triggered release of [3H]-D-aspartate in synaptosomal preparations of the hippocampus; conditions: hippocampus synaptosomes; read-out: IC50 for inhibiting NMDA-plus-glycine-triggered release of [3H]-D-aspartate; cited from earlier work
[8] = tested on: rats with oxaliplatin-induced mechanical hyperalgesia; test: Paw pressure test (Randall & Selitto) in oxaliplatin model; type: in vivo, rat; conditions: oxaliplatin 2.4 mg/kg i.p.
Method: Paw mechanical sensitivity was determined using a Randall & Selitto apparatus (Randall and Selitto, 1957) exerting a force that increases at constant rate (32 g/s). The stimulus causing paw withdrawal was evaluated before and at different times after treatment. Results represent the mean of mechanical thresholds for paw withdrawal expressed as grams. To avoid possible damage to the rat paw the maximum applied force was set at 240 g. In the single administration protocol, paw pressure tests were performed before (pre-dose) and at regular intervals after treatment.
Peripheral sensory neuropathy was induced in adult rats, by administration of oxaliplatin (Tocris) at 2.4 mg/kg i.p. in saline once daily for 5 consecutive days every week for three weeks (cumulative dose 36 mg/kg) according to Cavaletti et al., 2001. Starting from day 21 after the first oxaliplatin administration, the effect of repeated oral administration of racemic dimiracetam or the preferred inventive composition with an enantiomeric excess of (R)-dimiracetam of 50% corresponding to a 3:1 (R):(S) ratio of the enantiomers on oxaliplatin-induced mechanical hyperalgesia was assessed.
After repeated oral administration of either racemic dimiracetam or the preferred inventive composition with an enantiomeric excess of (R)-dimiracetam of 50%, oxaliplatin-induced mechanical hyperalgesia was measured. Pain threshold was assessed by a Randall & Selitto analgesymeter before the morning administration. […] Development of tolerance was not observed.
as §1
Paw mechanical sensitivity was determined using a Randall & Selitto apparatus exerting a force that increases at constant rate (32 g/s). The stimulus at which rats withdrew the paw was evaluated before and at different times after treatment. Results represent the mean of mechanical thresholds expressed as grams. To avoid any possible damage to the animal paw the maximum applied force was fixed at 240 g (Leighton et al. Br. J. Pharmacol. 93:553-560, 1988).

[9] = Rat plasma concentration-time profiles after oral administration; type: in vivo; conditions: for rat plasma concentration-time profiles after oral administration: 75 mg/kg p.o. enantiomer vs 150 mg/kg p.o. racemate (FIG. 4A, 4B); for interconversion of enantiomers in vivo: rat, oral administration
Method: FIG. 4A: Comparison of the plasma concentration-time profiles of the (R)-enantiomer after oral administration of (R)-dimiracetam (75 mg/kg) and after oral administration of racemic dimiracetam (150 mg/kg)
FIG. 4B: Comparison of the plasma concentration-time profiles of the (S)-enantiomer after oral administration of (S)-dimiracetam (2) (75 mg/kg) and after oral administration of racemic dimiracetam (150 mg/kg).

## O=C1CN2C(=O)CCC2N1 (racemic) [racemic dimiracetam, (RS)-3,6,7,7a-tetrahydro-1H-pyrrolo[1,5-a]imidazole-2,5-dione]
[1]; 15 mg/kg b.i.d.
  Von Frey paw withdrawal, Day 28: 16.0 ± 1.5 g
  Von Frey paw withdrawal, Pre-test: 21.4 ± 1.0 g
[1]; 50 mg/kg b.i.d.
  Von Frey paw withdrawal, Day 28: 18.5 ± 2.3 g
  Von Frey paw withdrawal, Pre-test: 21.4 ± 0.5 g
[2]; 0.1 nM
  Percent inhibition of NMDA + glycine-induced glutamate release from rat spinal synaptosomes: 9 ± 13%
[2]; 1 nM
  Percent inhibition of NMDA + glycine-induced glutamate release from rat spinal synaptosomes: 29 ± 3%
[2]; 10 nM
  Percent inhibition of NMDA + glycine-induced glutamate release from rat spinal synaptosomes: 35 ± 4%
[2]; at a concentration of 10 nM
  inhibition of NMDA plus glycine-evoked [3H]-D-aspartic acid release: 36%
[2]
  IC50: 0.0146 µM and 0.015 µM
[3]
  % inhibition (mean): 35.4%
[4]
  IC50: ~0.02 µM
[5]
  efficacy response after a single oral dose: superior response compared to either (R)- or (S)-dimiracetam alone
[6]; 15 mg/kg b.i.d.
  Cold plate, licking latency, Day 28: 14.8 ± 1.5 s
  Cold plate, licking latency, Pre-test: 21.5 ± 1.0 s
[6]; 50 mg/kg b.i.d.
  Cold plate, licking latency, Day 28: 15.4 ± 1.0 s
  Cold plate, licking latency, Pre-test: 22.0 ± 0.8 s
[7]
  IC50: ~3 µM
[8]; 15 mg/kg b.i.d.
  Randall & Selitto, paw pressure, Day 28: 48.7 ± 2.5 g
  Randall & Selitto, paw pressure, Pre-test: 68.1 ± 1.2 g
[8]; 50 mg/kg b.i.d.
  Randall & Selitto, paw pressure, Day 28: 55.2 ± 1.0 g
  Randall & Selitto, paw pressure, Pre-test: 67.1 ± 0.8 g

## O=C1CN2C(=O)CC[C@@H]2N1 [(R)-dimiracetam, (R)-3,6,7,7a-tetrahydro-1H-pyrrolo[1,5-a]imidazole-2,5-dione]
[2]
  IC50: 0.123 µM
[5]
  efficacy response after a single oral dose: partial efficacy response
[9]
  rat plasma concentration-time profiles after oral administration: identical
  interconversion of enantiomers in vivo: do not to interconvert in vivo

## O=C1CN2C(=O)CC[C@H]2N1 [(S)-dimiracetam, (S)-3,6,7,7a-tetrahydro-1H-pyrrolo[1,5-a]imidazole-2,5-dione]
[2]
  IC50: 0.418 µM
[5]
  efficacy response after a single oral dose: smaller response than the corresponding dose of the (R)-enantiomer
[9]
  rat plasma concentration-time profiles after oral administration: identical
  interconversion of enantiomers in vivo: do not to interconvert in vivo
